According to US12331022B2, “Spiropiperidine allosteric modulators of nicotinic acetylcholine receptors” (Merck Sharp & Dohme LLC, priority 2019, dated 2025):
Where two headings read alike, the source gives them in different places.

Molecular target: T1, human α7 nAChR (Homo sapiens, UniProt P36544)
T1 construct: host or cells: HEK
Test: Automated patch-clamp electrophysiology functional assay (Assay A)
Assay type: cell-based
Settings: HEK cell line stably expressing human RIC-3 and human α7, IonFlux HT whole-cell population patch, with or without 40 μM acetylcholine
Outline: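 Whole-cell population patch clamp at −60 mV, room temperature, on HEK cells stably co-expressing human α7 and RIC-3; compounds tested at three ascending concentrations per recording, alone (agonism) or with 40 μM acetylcholine (potentiation). Currents normalised to an initial 1 s 40 μM acetylcholine response; EC50 from concentration series.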

T1 sequence (P36544 23-502): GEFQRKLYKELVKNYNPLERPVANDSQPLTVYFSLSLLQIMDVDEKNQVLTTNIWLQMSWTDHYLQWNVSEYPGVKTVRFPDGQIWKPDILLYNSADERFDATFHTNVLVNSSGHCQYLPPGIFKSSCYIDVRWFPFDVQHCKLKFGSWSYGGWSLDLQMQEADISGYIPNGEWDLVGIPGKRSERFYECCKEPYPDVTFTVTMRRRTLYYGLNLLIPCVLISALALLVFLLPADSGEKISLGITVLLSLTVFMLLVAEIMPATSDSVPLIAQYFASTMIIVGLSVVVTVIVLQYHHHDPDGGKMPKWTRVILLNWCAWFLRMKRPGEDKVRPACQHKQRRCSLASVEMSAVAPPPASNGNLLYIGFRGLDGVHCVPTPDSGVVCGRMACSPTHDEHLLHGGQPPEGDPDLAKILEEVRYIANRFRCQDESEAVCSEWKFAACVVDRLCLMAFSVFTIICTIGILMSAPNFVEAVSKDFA

Structure (SMILES) | EC50 (read-out: α7 nAChR EC50) [nM] | EC50 (read-out: α7 nAChR Potency) [nM]
COc1ccc(F)c(OCC2CC23CCN(S(N)(=O)=O)CC3)c1 (racemic) [Example A26, 1-[(2-fluoro-5-methoxyphenoxy)methyl]-6-azaspiro[2.5]octane-6-sulfonamide] | 650 | 500 to 5000
Cc1cccc(OC[C@@H]2CC23CCN(S(N)(=O)=O)CC3)n1 [Example A48, (1R)-1-{[(6-methylpyridin-2-yl)oxy]methyl}-6-azaspiro[2.5]octane-6-sulfonamide] | 1700 | 500 to 5000
CN1CCN(c2cccc(OC[C@@H]3CC34CCN(S(N)(=O)=O)CC4)n2)CC1 [Example A46, (1R)-1-({[6-(4-methylpiperazin-1-yl)pyridin-2-yl]oxy}methyl)-6-azaspiro[2.5]octane-6-sulfonamide] |  | 500 to 5000

Results, then the compound that gave them:

EC50 (read-out: α7 nAChR EC50) [nM] | EC50 (read-out: α7 nAChR Potency) [nM] | Structure (SMILES)
37 | ≤ 100 | NS(=O)(=O)N1CCC2(CC1)C(COc1cccc(OC(F)F)c1)C2(F)F (single isomer, unassigned) [Example A28, 2-{[3-(difluoromethoxy)phenoxy]methyl}-1,1-difluoro-6-azaspiro[2.5]octane-6-sulfonamide]
1900 | 500 to 5000 | NS(=O)(=O)N1CCC2(CC1)C[C@@H]2COc1cccc(OC(F)(F)F)c1 [Example A25, (1S)-1-{[3-(trifluoromethoxy)phenoxy]methyl}-6-azaspiro[2.5]octane-6-sulfonamide]
720 | 500 to 5000 | NS(=O)(=O)N1CCC2(CC1)C(CSc1ccc(F)cc1C(F)(F)F)C2(F)F (centres unmarked) [Example 17, 1,1-Difluoro-2-({[4-fluoro-2-(trifluoromethyl)phenyl]sulfanyl}methyl)-6-azaspiro[2.5]octane-6-sulfonamide]
